Columns and labels:
Format in all cases: cell-based
[1] = tested on: HeLa mCherry-Gal9 cells; assay: mCherry-GAL9 recruitment assay
From the text: (§1) All compounds were subjected to a mCherry-GAL9 recruitment assay. Under normal conditions, mCherry-GAL9 is homogenously dispersed in the cytosol. When an endosomal leakage event is detected, mCherry-GAL9 translocates to the damaged endosome (Du Rietz et al. (2020) Nat. Commun. 11:1809) The resulting localization pattern of discrete puncta can be visualized and quantitated.
(§2) HeLa and Huh7 cell lines stably expressing mCherry-GAL9 were generated as described by (bioRxiv) (Munson, M. et al. (2021) Communications Biology, 4(211): 1-14) and seeded into 384-well CellCarrier Ultra plates (PerkinElmer: 6007558) at 3000 or 3500 cells/well respectively, 16 h before experimental usage.
(§3) Dose-response curves of select compounds were generated using an Echo 655T acoustic dispenser (Labcyte) to dispense the indicated compounds into source plates (Greiner: 781280) containing growth media. At experimental start points, media containing appropriate compounds and doses was transferred to plates using a liquid handling robot (Agilent Bravo).
(§4) At assay endpoints, cells were washed 2× PBS at RT and fixed in 4% PFA (VWR: 9713.1000) for 15 mins/RT. Cells were washed a further 3× PBS before the addition of PBS+1 μg/ml Hoechst 33342 (ThermoFisher Scientific: H21492) for a minimum of 1 h before imaging.
(§5) Plates were imaged using a spinning-disk confocal microscope (Yokogawa: CV7000) with a 20× objective (NA 0.75). Images were processed utilizing Columbus image-analysis software (PerkinElmer: v2.9.0) to identify and quantify cells and mCherry-GAL9 structures. The resulting data were processed and normalized in Spotfire (Tibco: v10.3) and plotted in Prism (Graphpad: v8.0.1). Image panels were assembled using the FigureJ plugin for FIJI. (Mutterer and Zinck (2013) J. Microsc. 252(1):89-91).
(§6) Cells were subjected to a 10-point concentration dilution (0-15 μM) for 2 hours and then fixed and imaged (FIG. 3 and FIG. 4). Images were analyzed and curves were generated from both mCherry-GAL9 puncta quantitation and cell survival as determined by nuclear morphology (FIG. 5). The GAL9 recruitment response support the functional splice-switching data with SSOs, confirming the mCherry-GAL9 assay as a powerful tool for screening endosomolytic compounds and supporting the hypothesis that AZ2467 (Compound 6) and AZ4800 (Compound 2) promote SSO activity by inducing endosomal rupture. The GAL9 assay was again conducted, this time in live cells for 4 hours with select compounds for screening. Compounds were screened at 5 μM (FIG. 6-8) or 0.3125-10 μM (FIG. 35-38). FIG. 39 and FIG. 47 provide results for select compounds at various doses 0.3125-10 μM.

[2] = tested on: Huh7 mCherry-Gal9 cells; assay: mCherry-GAL9 recruitment assay
From the text: as §1, §2, §3, §4, §5, §6

[3] = tested on: Luc705 pre-mRNA in HeLa Luc705 cells; assay: RT-PCR of corrected luciferase mRNA; details: with SSO, FIG. 9
Method: (§7) The percentage of corrected luciferase mRNA was quantified using a previously validated RT-PCR protocol. (Saher et al. (2019) Pharmaceutics. 11(12):666) Total RNA was extracted from HeLa Luc705 and Huh7 Luc705 cells using TRI Reagent (Sigma-Aldrich) according to the manufacturer's instructions.
(§8) For RT-PCR reactions using ONE STEP RT-PCR kit (QIAGEN), three nanograms of isolated RNA were utilized. The total reaction volume was 20 μL and the primer sequences used were:
(§9) The program for the RT-PCR was as follows: 55° C., 35 min, then 95° C., 15 min, for the reverse transcription step, directly followed by the PCR (94° C., 30 s, then 55° C., 30 s, then 72° C., 30 s) for 30 cycles and the final extension 72° C., 10 min. The PCR products were analyzed using a 1% agarose gel in 0.5× TAE buffer and visualized by SYBR Gold (Invitrogen, Molecular products) staining.
(§10) Versadoc imaging system with a cooled CCD camera (BioRad, Hercules, CA, USA) was used for the analysis of gels. Band intensities were analyzed with the Quantity One software (BioRad, Hercules, CA, USA). The percentage of correction was calculated using this equation (Band intensity of corrected RNA*100/(Band intensity of corrected RNA+Band intensity of uncorrected RNA).

[4] = tested on: Luc705 pre-mRNA in Huh7 Luc705 cells; assay: RT-PCR of corrected luciferase mRNA; details: with SSO, Huh7, FIG. 9
Method: as §7, §8, §9, §10

[5] = tested on: HeLa_Luc705 cells; assay: Splice switching activity assay, 24 hr SMC treatment, Examples 4B/4D
Method: (§11) HeLa_Luc705 cells were seeded in 96-well plates at 10,000 cells per well in growth media with 2 μM Luc705-SSO or 1 μM Luc705-SSO. The various SMCs were diluted directly into prepared growth media. After 24 hr to allow adherence and SSO internalization, 10 μl of diluted SMC was added into each well at indicated concentrations. For a positive control, SSOs were complexed with Lipofectamine 2000 for 30 min at RT and cells treated with a final concentration of 200 nM. ON concentrations above 200 nM would require LF2000 to be used in excess of the cells' toxicity threshold. After 24 hr treatment, cells were lysed with 0.1% TritonX-100 (Sigma Aldrich, cat no. X100) in 1× PBS (Gibco, cat no. 10010023).
For the detection of luciferase activity, 30 μL of cell lysate was transferred to white-walled plates. The luciferase intensity in each well was immediately measured via luminometer following auto-injection of 25 μL Luciferin substrate as per the Promega Firefly Luciferase Assay System. The timing parameters of photon measurements were optimized for this procedure.
as §11, with “The” for “HeLa_Luc705 cells were seeded in 96-well plates at 10,000 cells per well in growth media with 2 μM Luc705-SSO or 1 μM Luc705-SSO. The”

COc1nn(C2CCNCC2)cc1Nc1ncc(Cl)c(-n2ccc3c(C#N)cccc32)n1 [Compound 2]
relocalisation of Gal9 from cytosolic to punctate ([1]; 10-point dose titration, 2 hours, FIG. 3): dose-dependent manner | endosomal rupture, decrease of 488-SSO puncta ([1]; FIG. 16A): time and concentration-dependent manner | quantitation of GAL9 (mCherry-GAL9 puncta) ([1]; FIG. 17A): time and concentration-dependent responses | window in concentration between induction of endosomal rupture and cytotoxicity ([1]; HeLa, FIG. 5): narrow window | quantitation of Gal9 recruitment over time ([1]; HeLa, FIG. 8): time-dependent endosomal rupture | A488-positive structures (A488-SSO) after treatment ([1]; preloaded 1 μM A488-SSO, FIG. 15A): gradually disappeared over 2 hours | relocalisation of Gal9 from cytosolic to punctate ([2]; 10-point dose titration, 2 hours, FIG. 4): dose-dependent manner | Gal9 recruitment signal, puncta per relative nuclear signal ([2]; 60 min, Huh7): highest overall induced signal | endosomal rupture, decrease of 488-SSO puncta ([2]; FIG. 16B): time and concentration-dependent manner | quantitation of GAL9 (mCherry-GAL9 puncta) ([2]; FIG. 17B): time and concentration-dependent responses | window in concentration between induction of endosomal rupture and cytotoxicity ([2]; Huh7, FIG. 5): narrow window | quantitation of Gal9 recruitment over time ([2]; Huh7, FIG. 7): time-dependent endosomal rupture | A488-positive structures (A488-SSO) after treatment ([2]; preloaded 1 μM A488-SSO, FIG. 15B): gradually disappeared over 2 hours | levels of splice-switching (functional mRNA) [3]: greater levels of splice-switching than transfection with SSO using Lipofectamine 2000 | levels of splice-switching (functional mRNA) [4]: greater levels of splice-switching than transfection with SSO using Lipofectamine 2000 | increase in SSO activity ([5]; 2 μM Luc 705 SSO, FIG. 26): induced an increase in SSO activity

COc1nn(C2CCNCC2)cc1Nc1ncc(F)c(-n2ccc3c(C#N)cccc32)n1 [Compound 4]
GAL9 response, rank among exemplified compounds ([1]; doses 1.25-5 μM, 1, 2, 16 hours, FIG. 34): most potent response | GAL9 response, rank ([2]; 0.25 to 4 hours, 0.31 to 10 μM, FIG. 40): most potent | dose from which GAL9+ responses are seen ([2]; after 15 mins, FIG. 40): ≥ 1.25 µM | GAL9 response, rank among exemplified compounds ([2]; doses 1.25-5 μM, 1, 2, 16 hours, FIG. 33): most potent response | increase in SSO activity ([5]; 2 μM Luc 705 SSO, FIG. 24): increase in SSO activity | increase in SSO activity ([5]; 2 μM Luc 705 SSO, FIG. 26): induced an increase in SSO activity | increase in SSO activity ([5]; 2 μM SSO, FIG. 23A): increase in SSO activity | activity of the oligo as compared to oligo only ([5]; 2.5 μM compound, 1 μM SSO, FIG. 27): enhanced activity of the oligo as compared to oligo only | increase in SSO activity over 1 μM naked SSO ([5]; higher concentrations of AZ3327, FIG. 23B): increase in SSO activity

— patent US20260137807A1, “COMPOSITIONS AND METHODS FOR DELIVERING A MACROMOLECULE TO A CELL” (AstraZeneca AB, priority 2022, published 2026)
